# Laboratory results: patent publication US20190298717A1 (BOARD OF REGENTS, THE UNIVERSITY OF TEXAS SYSTEM, priority 2016, published 2019)
# Like-named read-outs stand apart in the source and are kept apart here.
# What was measured:
# SH-SY5Y cells [1] = tested on: SH-SY5Y cells
# Method: Viability of the cells was measured by Cell Titer Glo after 24 and 48 hours of treatments. […] Values are presented as mean±SDE (*p<0.05, **p<0.01).
# SH-SY5Y neuroblastoma cells were treated with doxorubicin (0.2 μM), a cytotoxic compound that depletes the NAD pool of the cells and changes morphological features that mimic neurodegeneration such as loss of neuritis (8, 9).
# GSK3β and Tau = assay: p-GSK3β and p-Tau in Aβ (1-42) treated primary neurons; conditions: 1 μM, 24 hours
# Method: Cells were transfected with tdTomato (red) plasmid to visualize structural and morphological changes of neurons. Nuclei were stained with DAPI (blue) scale bar=10 μm. […] Densitometry values were normalized using actin as an internal control.
# Immunofluorescence assays were performed and the phosphorylation status of GSK3β and Tau proteins were analyzed in primary cells using pGSK3β (S9) and pTau (S396) antibodies. Primary cortical neurons were isolated from the cortex of 0 day pups, cultured for two weeks, and were transfected with tdTomato plasmid to visualize structural and morphological changes of neurons. […] At the end of the treatment cells were fixed and immunostained with respective antibodies.
# [2] = tested on: neuropeptide Y, synaptotagmin; conditions: data not shown
# Excerpt: Neuronal plasticity, defined as the brain's ability to form new neural connections, allows the neurons to compensate for injury and disease and to adjust their activities in response to new situations or changes in their environment.
# [3] = data not shown
# [4] = tested on: primary cortical neuronal cells; conditions: 0.1, 1, 10 μM, 1 μM rotenone, 24 hours
# Method: (§1) The inventors first measured the cell proliferation to evaluate the stress caused by expression of tau fibrils in aggregate-positive and negative cells (FIG. 6A). […] The inventors also measured the concentration of superoxide ions (O2-), a detrimental byproduct of oxidative phosphorylation, as an ROS representative. […] The inventors next measured expression of Nrf2 and HO-1 in the same cells (FIG. 6C). […] Aggregate-positive and -negative KD cells were treated with 200 μM H2O2 for 24 h. Cytotoxicity was measured as release of LDH.
# (§2) Cell Viability and Cytotoxicity Assay. Cell growth was analyzed using the MTT cell viability assay. Briefly, at the end of incubation/treatment, MTT reagent was diluted in culture medium and aliquoted into each well. After incubation for 2 hours, the medium was aspirated and DMSO was aliquoted into each well to disrupt the cells and dissolve the intracellular MTT dyes. Absorbance was read at 570 nm wavelength in a 96-well plate reader. Cell toxicity was detected using a LDH cell toxicity assay kit (Promega, Fitchburg Wis.). This is a coupled enzymatic assay that detects a visible color signal initially described by Nachlas et. al. The reagent contained excess concentrations of lactate and NAD+as substrates to drive the LDH reaction and produce NADH. In the presence of diaphorase, NADH drives the enzyme-catalyzed conversion of iodonitro-tetrazolium violet to a red formazan product. Briefly, DMEM medium was withdrawn from each well of the plate after treatment and briefly centrifuged to get rid of floating cells or cell debris. Then, the medium supernatant was mixed with equal volume of substrate/enzyme mixture included in the kit (lactate, NAD+, diaphorase and iodonitro-tetrazolium violet), followed by incubation at room temperature for 15 minutes before the addition of acetic acid to cease the reaction. The absorbance was read at 490 nm in a 96-well plate reader. […] Cell viability assay was performed using CellTiter-Glo assay.
# [5] = tested on: HEK293 cells overexpressing tau residues 244 to 372, with mutations of P301L and V337M
# Method: as §1, §2
# C. elegans = tested on: C. elegans
# Method: C. elegans strains and maintenance. Animals were grown and maintained using standard C. elegans conditions at 20° C. on NGM plates and were fed E. coli strain HB101. N2 worms were used as wild-type and the following mutants and transgenic strains were used from Caenorhabditis Genetics Center (CGC, University of Minnesota): EU1 skn-1(zu67) (IV)/nT1[unc-?(n754); let-?], EU31 skn-1(zu135))/nT1[unc-?(n754); let-?], CL2166 dvIs19 [gst-4p::GFP::NLS], CL691 dvIs19 [gst-4p::GFP::NLS], skn-1(zu67)/nT [unc-?(n754) let-?], LG333 skn-1(zu135)/nT1[qIs51]; ldIs7[skn-1b/c::GFP], LG348 skn-1(zu135)/nT1[qIs51]; geIs9 [gpa-4p::skn-1b::GFP+rol-6(su1006)], LG357 skn-1(zu135)/nT1[qIs51]; geIs10 [ges-1p(long)::skn-1c::GFP+rol-6(su1006)], and LD1 ldIs7 [skn-1b/c::GFP+rol-6(su1006)].
# Lifespan analysis. All lifespan assays were performed at 20° C. according to standard protocols described elsewhere. […] Worms were transferred to fresh plates every day after reaching adulthood, and every two days after reaching 10 days of age. Prodding test as described above was used to count the number of dead worms. Survival curve was plotted using Prism 7 and the significance of the curves calculated by Log-rank (Mantel-Cox) test.
# RNA Interference. Synchronized L1 larvae were placed on NGM plates containing 1 mM IPTG and fed HT115 bacterial strain containing scramble or skn-1 RNAi plasmids. All the experiments were done at 20° C.
# SH-SY5Y cells [6] = assay: H2O2-EC50 of hydralazine and its analogs (protection from H2O2 stress); type: cell-based; conditions: Homo sapiens
# Method: To generate intracellular aldehydes, the inventors treated human neuroblastoma cell line (SH-SY5Y) with 100 μM hydrogen peroxide (H2O2) for 24 h. Carbonyl groups were quantified using 2,4-DNPH (dinitrophenylhydrazine) assay.
# as §2
# [7] = tested on: Nrf2 knockdown SH-SY5Y cells; conditions: Nrf2 siRNA knockdown, 24 h
# Method: GSH is regulated by the rate-limiting enzyme GCL consisted of GCLc and GCLm subunits. […] The inventors then used extracellular lactate dehydrogenase cytotoxicity assay to measure cell survival.
# Cell Viability and Cytotoxicity Assay. Cell growth was analyzed using the MTT cell viability assay. Briefly, at the end of incubation/treatment, MTT reagent was diluted in culture medium and aliquoted into each well. After incubation for 2 hours, the medium was aspirated and DMSO was aliquoted into each well to disrupt the cells and dissolve the intracellular MTT dyes. Absorbance was read at 570 nm wavelength in a 96-well plate reader. Cell toxicity was detected using a LDH cell toxicity assay kit (Promega, Fitchburg Wis.). This is a coupled enzymatic assay that detects a visible color signal initially described by Nachlas et. al. The reagent contained excess concentrations of lactate and NAD+as substrates to drive the LDH reaction and produce NADH. In the presence of diaphorase, NADH drives the enzyme-catalyzed conversion of iodonitro-tetrazolium violet to a red formazan product. Briefly, DMEM medium was withdrawn from each well of the plate after treatment and briefly centrifuged to get rid of floating cells or cell debris. […] The absorbance was read at 490 nm in a 96-well plate reader. […]
# [8] = tested on: SKN-1/Nrf2-stress response pathway; conditions: in vivo
# Method: Treated and untreated populations, four biological replicates each, were then lysed, digested and analyzed by shotgun mass spectrometry for label-free quantification. […] An IPA analysis was performed using proteins with human orthologs.
# Worms were lysed in 8M urea, 5% 1 M Tris-HCl pH 8.0 and 1× protease inhibitor cocktail EDTA-free (Thermo Fisher, Waltham Mass.) buffer with the aid of sonication. Lysates were centrifuged at 14000 g for 15 min at 4° C. and proteins in the supernatant were precipitated using cold acetone. Disulfide bonds were reduced and alkylated (by DTT and IAA respectively) before diluting the solution to 1.8 M with 25 mM TRIS-HCL pH 8.0. Proteins were digested overnight at 37° C. with trypsin (Promega, Fitchburg Wis.) in presence of 1 mM CaCl2. Peptides were acidified with TFA and purified using Oasis HLB plates (Waters, UK). A Dionex Ultimate 3000 UHPLC (Thermo) was coupled to an Orbitrap Fusion Lumos mass spectrometer for the separation and analysis of tryptic peptides. […]
# LC-MS/MS raw data files were processed using the latest available MaxQuant software (v.1.5.3.30). […] The p-values for all the statistical analysis were calculated using a two-tailed student t-test as used for normally distributed data (we pre-processed intensities by binary logarithm).
# [9] = tested on: glutathione S-transferase-4 (GST-4)
# Method: The inventors measured the expression of glutathione S-transferase-4 (GST-4), a downstream target of SKN-1, in a transgenic strain (CL2166) expressing GFP driven by the GST-4 promoter (Kahn et al., 2008).
# Imaging. To measure the GFP intensity, synchronized populations of worms were anesthetized and arranged on agarose pad. The intestinal SKN-1::GFP was assayed by confocal microscopy (X40) (Nikon A1R, Nikon Instruments Inc., Melville, N.Y., USA) (FIG. 5A). The quantification of intestinal SKN-1::GFP was performed with ImageJ (FIG. 5B). The ASI SKN-1::GFP was assayed by a Zeiss Axiolmager M2 microscope equipped with a Hamamatsu Flash 4.0 Scientific c-mos camera and Zen2 software (X40) (FIG. 5D). The quantification of ASI SKN-1::GFP was performed with ImageJ using a sliding paraboloid algorithm for reducing the background followed by edge detection. The t-test was conducted with Welsh correction since the standard deviations were not equal (FIG. 5E). The GSTp::GFP intensity was measured same as ASI SKN-1::GFP but with ×5 magnification. The GSTp::GFP quantification was done using the whole worm signal following the same protocol as intestinal SKN-1::GFP (FIG. 5G).
# Method for primary cortical neurons: For each group (control, 0.5 μM Hyd, 1 μM Hyd, 2 μM Hyd and 2 μM Dimebon) 10 images from three replicates were analyzed. Total numbers of spines, stubby, thin, and mushroom were counted by NeuronStudio software for each image. The mean value and standard deviation of numbers for each group were calculated. P value was calculated with non-parametric T-test. All values are mean±SD (*p<0.05, **p<0.01).
# Primary neuronal cells from cortex were visualized with td-Tomato (FIG. 21A). Cells were treated with 500 nM Aβ-42 oligomers or vehicle (Ctrl). Spine density and morphology were measured per 10 micron by confocal imaging. […] Mushroom and thins are indicated with an arrow. […] Dimebon, a known neuroprotective compound, was used as positive control in all experiments. Data were collected from three batches of cultures for all treatments and Ctrl. For spine quantification n=8-10 (for each treatment per one experiment) neurons were analyzed by Neuronstudio. Scale bar corresponds to 5 μm. Experiment was repeated three times. Values are shown as mean±SEM. (*p<0.05, **p<0.01, ***p<0.001, ****p<0.0001).
# Primary neuronal cells were isolated from the cortex of mice pups on day 0 (P0) and cultured in 24 well plates covered by poly-D-lysine coated coverslips with a density of 1.0×105 for 7 days. Cells were then transfected with tdTomato plasmid and incubated for 14 additional days (4). […] Dimebon (2 μM) was used as a positive control. After 24 hours of treatment, cells were fixed and scanned with a Zeiss microscope at 100× resolution for visualizing spines on the dendrites. The images were analyzed using Neuronstudio software (5). […] Structural formation and the maturation of spines were also analyzed.
smiles,measurement,setting,value
NNc1nncc2ccccc12 [Hydralazine],increase of NAD level of untreated cell,SH-SY5Y cells [1]; 48 hours,50%
same,NAD level in doxorubicin treated cells,SH-SY5Y cells [1]; doxorubicin 0.2 μM,significant effect on restoring NAD level
same,protection against doxorubicin induced cell death,"SH-SY5Y cells [1]; doxorubicin 0.2 μM, 0, 10, 20 μM, 24 and 48 hours",protects cells in a dose-dependent manner
same,pGSK3β (S9) in primary cells,GSK3β and Tau,marked increase
same,pTau in primary cells,GSK3β and Tau,reduced level of pTau
same,increase of expression of neuropeptide Y,[2],3 fold
same,increase of expression of synaptotagmin,[2],~2.5 fold
same,pro-oxidant environment (DCFH-DA intensity),[3],does not create a mild pro-oxidant environment
same,viability of primary neuronal cells under rotenone,[4],rescues primary neuronal cells from rotenone toxicity in a dose-dependent manner
same,cell viability under rotenone,"[5]; 20 μM, 1 μM rotenone, 24 h",protects both aggregate-positive and negative cells
same,cell viability in Nrf2 KD cell line,[5]; Nrf2 knockdown tau cells,did not improve cell viability
same,cell growth of aggregate-positive cells,[5]; tau aggregate-positive HEK293,improved
same,Variation Compared to Control (%),"C. elegans; EU1 skn-1(zu67), 100 μM Hyd (printed 100 IJM), FIG. 7G",+11.7%
same,Variation Compared to Control (%),"C. elegans; EU31 skn-1(zu135), 100 μM Hyd (printed 100 IlM), FIG. 7G",+3.3%
same,Variation Compared to Control (%),"C. elegans; LG348 (geIs9, skn-1b), 100 μM Hyd (printed 100 IJM), FIG. 7H",+10.8%
same,Variation Compared to Control (%),"C. elegans; LG357 (geIs10, skn-1c), 100 μM Hyd (printed 100 FM), FIG. 7H",+2.7%
same,Variation Compared to Control (%),"C. elegans; N2, 10 μM Hyd (printed 10 IJM), FIG. 7E",+4.82%
same,lifespan extension,"C. elegans; N2, 100 μM",≤ 25%
same,Variation Compared to Control (%),"C. elegans; N2, 100 μM Hyd (printed 100IJM), FIG. 7E",+24.4%
same,Variation Compared to Control (%),"C. elegans; N2, 200 μM Hyd (printed 200 IlM), FIG. 7E",+13.3%
same,Variation Compared to Control (%),"C. elegans; N2-Scramble RNAi, 100 μM (printed 100 IJM), FIG. 7F",+22.2%
same,Variation Compared to Control (%),"C. elegans; N2-skn-1 RNAi, 100 μM, FIG. 7F",−5.4%
same,pro-longevity effect in skn-1(zu135) mutant and skn-1 knockdown worms,C. elegans; in vivo,completely lost
same,extension of medium and maximum lifespan,C. elegans; worms treated with hydralazine,at least 25%
same,EC50,SH-SY5Y cells [6],6.78 µM
same,protection from H2O2-induced cytotoxicity in Nrf2 knockdown cells (LDH),[7],no protection
same,"SKN-1/Nrf2-stress response pathway activation, IPA Z score",[8],3.317
same,GST-4p::GFP signal in worms fed skn-1(RNAi) or skn-1(zu67),"[9]; 100 μM, 72 h",did not increase GFP signal
same,GST-4p::GFP signal,"[9]; strain CL2166, 48 h after treatment",significant increase in the GFP signal
same,spine density after Aβ-42 oligomers,"primary cortical neurons; 1 μM, 500 nM Aβ-42, 24 hours",restoration of spine density
same,numbers of spines in a 10 micron length of dendrite,"primary cortical neurons; 0.5, 1.0, 2.0 μM, 24 hours",significantly increased
same,stubby formation and mushroom spines,"primary cortical neurons; 0.5, 1.0, 2.0 μM, 24 hours",increased the stubby formation and numbers of matured spines
